Like-named read-outs stand apart in the source and are kept apart here.
Legend:
[1] = test system: HEK293; details: HEK293, 24 h, MTS
[2] = test system: HaCaT; details: 24 h, MTS
[3] = test system: A549, MCF-7, HEK293, and HaCaT cell cultures; experiment: Apoptosis detection with annexin V FITC and propidium iodide; assay type: cell-based; details: at IC50, 12 h
Protocol: Annexin V detects apoptosis by binding to phosphatidylserine, which during this process is exposed in the outer layer of the cell membrane. Its conjugation with fluorochromes such as FITC allows visualization of this binding by epifluorescence microscopy in the green channel. The detection of apoptosis was determined with the annexin V kit conjugated with the fluorophore FITC (Thermo, cat. 88-8005-72) under the following protocol: 0.5 × 10^6 cells/mL of A549, MCF-7, HEK293, and HaCaT cells were seeded in 24-well plates on round glass coverslips treated with L-polylysine. […] Cultures were incubated for 12 h under standard culture conditions. Subsequently, the cells were washed with 500 μL of cold PBS and incubated for 5 min in a 1X solution of annexin-binding buffer. Next, 15 μL of annexin V conjugate and 5 μL of propidium iodide (PI) were added, and the mixture was incubated over 15 min at room temperature. After washing with 1X buffer, the cells were observed using an epifluorescence microscope (Nikon Eclipse E400). The red channel (TRITC) identified necrosis due to PI intercalation, while the green channel (FITC) detected apoptosis through binding of the phosphatidylserine–annexin V complex.

[4] = test system: A549, MCF-7, HEK293, and HaCaT cell cultures; experiment: Acridine orange / propidium iodide staining, epifluorescence microscopy; assay type: cell-based
Excerpt: The purpose of using acridine orange (AO) and propidium iodide (PI) is to take advantage of their introduction of viable cells (AO) and non-viable cells (AO/PI) by their intercalating ability in DNA of cells, which by excitation with a wavelength of 400 nm emit radiation of lower energy and longer wavelength (green and red light, respectively). This technique allows differentiating the distinct states in which a cell is found; AO is able to cross the cell membrane regardless of its membrane integrity, so the compound stains all cells, emitting green light and, in some cases, orange if it binds to RNA or where there is high lysosomal activity. PI penetrates the cell when its membrane is damaged by intercalating with higher affinity to DNA and emits red color, eclipsing the intensity caused by AO staining. Briefly, the protocol used for this technique was: 0.5×10^6 cells/mL of A549, MCF-7, HEK293, and HaCaT cells were seeded in 24-well plates on round glass coverslips. All cell cultures were treated with complexes 3 and 4 with the IC50 calculated previously. At 12 h, the coverslips were removed from the wells. Later, 5 μL of a 1:1 mixture of the dyes (50 μg/mL of AO and 100 μg/mL of PI) was added to 5 μL of sample and coverslips were flipped and placed on a slide for observation.

[5] = test system: A549 (lung cancer); details: for IC50: A549, 24 h, MTS; for Selectivity Index (SI): IC50(HaCaT)/IC50(A549)
[6] = test system: A549, MCF-7, HaCaT and HEK293 cell lines; details: for IC50: all the cell lines tested; for increase in potency over cisplatin: considering the concentrations used to determine the IC50
[7] = test system: A549, MCF-7, HEK293, and HaCaT cell cultures; experiment: Nuclei staining with Hoechst 33258; assay type: cell-based
Excerpt: Hoechst dyes are excited by UV light (~360 nm) and emit a broad spectrum of blue light with a maximum at 460 nm. Upon binding to DNA, they increase their fluorescence 30-fold, which ensures a good signal-to-noise ratio. This increase in fluorescence is due to the suppression of rotational relaxation and reduced hydration upon binding to DNA. These dyes are not intercalating; they bind to the minor groove of the DNA in the A-T rich regions. Hoechst dyes are often used to distinguish condensed pyknotic nuclei in apoptotic cells. Briefly, the Hoechst dye stock solution was prepared by dissolving the contents of one vial (100 mg) in 10 mL of deionized water to create a 10 mg/mL (16.23 mM) solution. Then, 5×10^5 cells/mL of A549, MCF-7, HEK293, and HaCaT cells were seeded in 24-well plates on round glass coverslips. Cell cultures were treated with the complexes 3 and 4 using the IC50 calculated previously. At 12 h, the coverslips were removed from the wells. Cells were fixed by adding 200 μL of 4% paraformaldehyde. Later, cells were incubated at 37 °C for 30 min and washed 2 times with PBS. Then, 200 μL Hoechst 33258 (1:1000) was added to the sample and protected from light following incubation at room temperature for 30 min. Subsequently, they were washed 2 times with PBS.

[8] = test system: A549, MCF-7, HEK293, and HaCaT cell cultures; experiment: DNA fragmentation assay (agarose gel); assay type: cell-based
Excerpt: DNA fragmentation is a characteristic process of apoptosis. During apoptosis, cell DNA is broken into fragments of specific sizes (multiples of 180–200 bp) due to the action of nucleases activated by effector caspases (caspase-3, caspase-7, and caspase-6). To visualize DNA fragmentation on agarose gels, cultures of MCF-7, A549, HEK293, and HaCaT cells treated with complexes 3 and 4 were harvested under the same conditions as the acridine orange/propidium iodide assay and their nuclei stained. Cell cultures were treated with complexes 3 and 4 using the IC50 calculated previously. Cultures were harvested and centrifuged at 12,000 rpm; pellets were washed twice with PBS and resuspended in lysis buffer (10 mM Tris-HCl (pH 7.4), 5 mM EDTA, 0.2% Triton X-100) with RNase and incubated for 1 h at 37 °C. […]. Proteinase K was then added and incubated for 2 h at 55 °C. Extraction was performed with phenol:chloroform:isoamyl. To precipitate DNA, 96% ethanol, 10 M ammonium acetate, and glycogen were added. Finally, the samples were resuspended in 1X Buffer TE and stored at −20 °C. DNA was electrophoretically separated on a 2% agarose gel with ethidium bromide and visualized by UV transillumination.

[9] = test system: MCF-7 (breast cancer); details: for Selectivity Index (SI): IC50(HaCaT)/IC50(MCF-7); for IC50: MCF-7, 24 h, MTS
[10] = test system: A549, MCF-7, HaCaT and HEK293 cell lines; details: previously calculated value for the cell lines evaluated; cited from earlier work
[11] = test system: A549 (lung cancer); design: method as in doi:10.1016/j.ica.2020.119542; details: value taken from previous work ref 16; cited from earlier work
[12] = test system: HEK293; design: method as in doi:10.1016/j.ica.2020.119542; details: value taken from previous work ref 16; cited from earlier work
[13] = test system: MCF-7 (breast cancer); design: method as in doi:10.1016/j.ica.2020.119542; details: value taken from previous work ref 16; cited from earlier work
[14] = test system: HaCaT; design: method as in doi:10.1016/j.ica.2020.119542; details: value taken from previous work ref 16; cited from earlier work
[15] = complexes at IC50 of Table 5, 12 h

## ethanol(1,10-phenanthroline-κ^2N,N’)(β^2-phenylalaninate-κ^2N,O)copper(II) nitrate [Compound 4]
[1]
  IC50: 0.32 ± 0.02 µM
[2]
  IC50: 0.35 ± 0.09 µM
[3]
  annexin V-FITC / PI fluorescence: significant induction of apoptosis
[4]; complexes at IC50, 12 h
  morphology, AO/PI staining: induced morphological features that, in principle, indicate a cell death process
[5]
  IC50: 0.22 ± 0.05 µM
  Selectivity Index (SI): 1.59
[6]
  IC50: < 1 µM
  increase in potency over cisplatin: 83 times
[7]; [15]
  nuclear morphology, Hoechst 33258: decrease in the size of the nuclei, irreversible chromatin condensation, and nuclear fragmentation
[8]; complexes at IC50 of Table 5
  DNA fragmentation pattern: specific indication of an apoptotic process
[9]
  Selectivity Index (SI): 0.87
  IC50: 0.4 ± 0.02 µM

## Aqua(1,10-phenanthroline-κ^2N,N’)(β^2-methylalaninate-κ^2N,O)copper(II) nitrate [Compound 3]
[1]
  IC50: 0.19 ± 0.01 µM
[2]
  IC50: 0.21 ± 0.02 µM
[3]
  annexin V-FITC / PI fluorescence: significant induction of apoptosis
[4]; complexes at IC50, 12 h
  morphology, AO/PI staining: induced morphological features that, in principle, indicate a cell death process
[5]
  IC50: 0.24 ± 0.02 µM
  Selectivity Index (SI): 0.875
[6]
  IC50: < 1 µM
  increase in potency over cisplatin: 83 times
[7]; [15]
  nuclear morphology, Hoechst 33258: decrease in the size of the nuclei, irreversible chromatin condensation, and nuclear fragmentation
[8]; complexes at IC50 of Table 5
  DNA fragmentation pattern: specific indication of an apoptotic process
[9]
  Selectivity Index (SI): 0.6
  IC50: 0.35 ± 0.02 µM

## O=[N+]([O-])[O-].O=[N+]([O-])[O-].[Cu+2] [Cu(NO3)2, Copper(II) nitrate]
[1]
  IC50: 47.6 ± 3.22 µM
[2]
  IC50: 55.5 ± 2.03 µM
[5]
  IC50: 47.8 ± 3.22 µM
[9]
  IC50: 70.2 ± 2.03 µM

## N.N.[Cl][Pt][Cl] [Cisplatin, cis-[PtCl2(NH3)2]]
[10]
  IC50: 25 µM
[11]
  IC50: 25 µM
[12]
  IC50: 25 µM
[3]
  annexin V-FITC / PI fluorescence: intense signal in the green channel (FITC)
[13]
  IC50: 25 µM
[4]; cisplatin 25 µM
  morphology, AO/PI staining: show red nuclei, indicating a decrease in cell viability
[7]; cisplatin 25 µM
  nuclear morphology, Hoechst 33258: evident change in nuclear structure
[8]; cisplatin 25 µM
  DNA fragmentation pattern: DNA fragmentation is observed
[14]
  IC50: 25 µM
